Results taken from patent US20170197935A1, “INHIBITORS OF DNA GYRASE FOR THE TREATMENT OF BACTERIAL INFECTIONS” (Vitas Pharma Research Private Limited, priority 2012, published 2017).
pIC50: −log10 of the molar value. Converted amounts (≈) assume the structure as drawn. Like-named read-outs stand apart in the source and are kept apart here.

Tests used:
E. coli (ATCC 25922) = assay: MIC by microbroth dilution, E. coli ATCC 25922; assay type: cell-based; conditions: Escherichia coli
Description: (§1) Shown below are the microbiological activities of representative compounds of Formula I of the invention. The compounds were tested by the microbroth dilution method (National committee for Clinical Laboratory Standards, 2011, M07-08) and the Minimum Inhibitory Concentration (MIC) was determined.
(§2) Analysis of microbiological activity of compounds shown below are the microbiological activities of representative compounds of Formula II of the invention. The compounds were tested by the microbroth dilution method as per the reference in Example 1.

E. faecalis ATCC 51299 = assay: MIC by microbroth dilution, E. faecalis ATCC 51299; assay type: cell-based; conditions: Enterococcus faecalis, ATCC51299, Formula II compounds, read-out: Minimum Inhibitory Concentration (MIC) E. faecalis ATCC 51299
Description: as §1, §2

[1] = test system: Methicillin resistant Staphylococcus aureus (ATCC 33591); assay: MIC by microbroth dilution, MRSA ATCC 33591; assay type: cell-based
Description: as §1, §2

Pseudomonas ATCC 27853 = assay: MIC by microbroth dilution, Pseudomonas ATCC 27853; assay type: cell-based; conditions: ATCC27853, Formula II compounds, read-out: Minimum Inhibitory Concentration (MIC) Pseudomonas ATCC 27853
Description: as §1, §2

Acinetobacter BAA747 = assay: MIC by microbroth dilution, Acinetobacter BAA747; assay type: cell-based; conditions: Formula II compounds, read-out: Minimum Inhibitory Concentration (MIC) Acinetobacter BAA747
Description: as §1, §2

[2] = molecular target: T1, ciprofloxacin resistant recombinant Gyrase protein (with mutation S83L) (Escherichia coli, UniProt P0AES4+P0AES6, S83L); assay: Gyrase supercoiling assay with ciprofloxacin resistant Gyrase (S83L); assay type: biochemical; conditions: read-out: Target specificity: % inhibition of supercoiling activity
T1 construct: purchased Inspiralis
Description: The enzyme is incubated with the substrate (relaxed DNA) in the presence and absence of compounds for 1 hour at 37° C. and the DNA is run on a gel at low voltage for several hours. The amount of supercoiled DNA is quantified using DNA imaging and quantification software (Image Lab). The activity of the enzyme is proportional to the amount of supercoiled form detected.

[3] = test system: Staphylococcus aureus (ATCC 29213); assay: MIC by microbroth dilution, Staphylococcus aureus ATCC 29213; assay type: cell-based; conditions: ATCC29213
Description: (§3) Shown below are the microbiological activities of representative compounds of Formula I of the invention. The compounds were tested by the microbroth dilution method (National committee for Clinical Laboratory Standards, 2011, […]-08) and the Minimum Inhibitory Concentration (MIC) was determined.

[4] = test system: Enterococcus faecalis (ATCC 29212); assay: MIC by microbroth dilution, Enterococcus faecalis ATCC 29212; assay type: cell-based; conditions: ATCC29212
Description: as §3

MRSA E9823 = assay: MIC against FQ resistant clinical strain MRSA E9823; assay type: cell-based; conditions: Staphylococcus aureus, fluoroquinolone resistant clinical strain, read-out: MIC against FQ resistant strains, MRSA E9823
Description: as §1
(§4) To test if compounds are able to overcome fluoroquinolone resistance, we have determined the MICS against Fluoroquinolone (FQ) resistant clinical strains of MRSA and E. coli.

MRSA E9749 = assay: MIC against FQ resistant clinical strain MRSA E9749; assay type: cell-based; conditions: Staphylococcus aureus, fluoroquinolone resistant clinical strain, read-out: MIC against FQ resistant strains, MRSA E9749
Description: as §1, §4

[5] = test system: Streptococcus pneumoniae (ATCC 6301); assay: MIC by microbroth dilution, Streptococcus pneumoniae ATCC 6301; assay type: cell-based; conditions: ATCC6301
Description: as §3

hERG = hERG (Homo sapiens, UniProt Q12809); assay: biochemical
Description: To test the ability of the VT-03 compounds to bind the hERG channel, membranes expressing the hERG channel were incubated with radiolabeled Astemizole and displacement of the labeled ligand in the presence of compounds was measured.
To test the ability of the VT-03 compounds (of Formula II) to bind the hERG channel, membranes expressing the hERG channel were incubated with radiolabeled Astemizole and displacement of the labeled ligand in the presence of compounds was measured.

[6] = test system: Moraxella catarrhalis (ATCC 8176); assay: MIC by microbroth dilution, Moraxella catarrhalis ATCC 8176; assay type: cell-based; conditions: ATCC8176
Description: as §3

[7] = test system: K. pneumoniae (ATCC 700603); assay: MIC by microbroth dilution, K. pneumoniae ATCC 700603; assay type: cell-based; conditions: Klebsiella pneumoniae, ATCC700603, Formula I compounds
Description: as §1, §2

[8] = Single dose pharmacokinetics in male Swiss albino mice; assay type: in vivo; conditions: mouse, in vivo
Description: (§5) Compounds were dosed to male Swiss albino mice to determine the pharmacokinetic profiles.
as §5

[9] = ATCC25922, Formula II compounds, read-out: Minimum Inhibitory Concentration (MIC) E. coli ATCC 25922
[10] = Formula II compounds, read-out: Minimum Inhibitory Concentration (MIC) MRSA ATCC 33591
[11] = ATCC25922, Formula I compounds, read-out: MIC E. coli (ATCC 25922)
[12] = ATCC33591, Formula I compounds, read-out: MIC Methicillin resistant Staphylococcus aureus (ATCC 33591)

Row | Compound | MIC (E. coli (ATCC 25922); [9]) [µg/mL] | MIC (E. faecalis ATCC 51299) [µg/mL] | MIC [1, 10] [µg/mL] | MIC (Pseudomonas ATCC 27853) [µg/mL] | MIC (Acinetobacter BAA747) [µg/mL] | inhibition at 0.1 µM [2] [%] | inhibition at 1 µM [2] [%] | further results
1 | CNC(=O)c1ccc2ncc(=O)n(CCN3CCC(NCc4ccc(C)c(F)c4)CC3)c2c1 [VT-03-00109] | 16 (≈ 35.4 µM) | 2 (≈ 4.43 µM) | 1 (≈ 2.21 µM) |  |  |  |  | 
2 | COc1ccc2ncc(=S)n(CCN3CCC(NCc4ccc(C)c(C#N)c4)CC3)c2c1 [VT-03-00132] | 2 (≈ 4.47 µM) | 1 (≈ 2.23 µM) | 1 (≈ 2.23 µM) | 32 (≈ 71.5 µM) | 2 (≈ 4.47 µM) |  |  | 
3 | COc1ccc2ncc(=O)n(CCN3CCC(NCc4ccc(Cl)c([N+](=O)[O-])c4)CC3)c2c1 [VT-03-00128] | 0.5 to 1 (≈ 1.06 to 2.12 µM) | 0.25 (≈ 0.53 µM) | 0.015 (≈ 0.0318 µM) | 8 (≈ 17 µM) | 0.25 (≈ 0.53 µM) | 34 | 51 | 
4 | Cc1ccc(CNC2CCN(CCn3c(=O)cnc4ccc(F)cc43)CC2)cc1C#N [VT-03-00117] | 0.5 (≈ 1.19 µM) | 0.25 (≈ 0.596 µM) | 0.125 (≈ 0.298 µM) | 16 (≈ 38.1 µM) | 0.25 (≈ 0.596 µM) | 88.2 | 97.5 | 
5 | O=c1cnc2ccc(F)cc2n1CCN1CCC(NCc2ccc(Cl)c([N+](=O)[O-])c2)CC1 [VT-03-00116] | 0.25 (≈ 0.544 µM) | 0.25 (≈ 0.544 µM) | 0.03 (≈ 0.0652 µM) | 16 (≈ 34.8 µM) | 0.25 (≈ 0.544 µM) | 96.9 | 94.3 | 
6 | COc1ccc2ncc(=O)n(CCN3CCC(NCc4ccc(C)c(F)c4)CC3)c2n1 [VT-03-00101] | > 16 | 16 (≈ 37.6 µM) | 4 (≈ 9.4 µM) |  |  | 95.9 | 92.3 | 
7 | COc1ccc2ncc(C#N)c(CCN3CCC(NCc4ccc([N+](=O)[O-])s4)CC3)c2c1 [VT-03-00052] |  |  |  |  |  |  |  | MIC (E. coli (ATCC 25922); [11]): 16 µg/mL (≈ 35.4 µM); MIC [3]: 0.125 µg/mL (≈ 0.277 µM); MIC [4]: 4 µg/mL (≈ 8.86 µM); MIC [1, 12]: 0.25 µg/mL (≈ 0.554 µM); MIC (MRSA E9823): 0.25 µg/mL (≈ 0.554 µM); MIC (MRSA E9749): 0.25 µg/mL (≈ 0.554 µM); MIC [5]: 1 µg/mL (≈ 2.21 µM)
8 | CNC(=O)c1ccc2ncc(=O)n(CCN3CCC(NCc4ccc(C)c([N+](=O)[O-])c4)CC3)c2c1 [VT-03-00108] | 8 (≈ 16.7 µM) | 2 (≈ 4.18 µM) | 0.25 (≈ 0.522 µM) |  |  |  |  | 
9 | COc1ccc2ncc(C#N)c(CCN3CCC(NCc4ccc(OC)c([N+](=O)[O-])c4)CC3)c2c1 [VT-03-00063] |  |  |  |  |  |  |  | MIC (E. coli (ATCC 25922); [11]): 4 µg/mL (≈ 8.41 µM); pIC50 (hERG): < 4.52; MIC [3]: 0.25 µg/mL (≈ 0.526 µM); MIC [4]: 2 µg/mL (≈ 4.21 µM); MIC [1, 12]: 0.5 µg/mL (≈ 1.05 µM); MIC [6]: 0.25 µg/mL (≈ 0.526 µM); MIC [5]: 0.25 µg/mL (≈ 0.526 µM); MIC [7]: > 32 µg/mL
10 | Cc1ccc(CNC2CCN(CCn3c(=O)cnc4ccc(Cl)nc43)CC2)cc1[N+](=O)[O-] [VT-03-00118] | 0.25 (≈ 0.547 µM) | 0.125 (≈ 0.274 µM) | 0.015 (≈ 0.0328 µM) | 8 (≈ 17.5 µM) | 0.25 (≈ 0.547 µM) | 91.5 | 89 | pIC50 (hERG): < 4.52; AUC(0-t) ([8]; iv, 5 mg/kg): 497 ng·h/mL; Cmax ([8]; iv, 5 mg/kg): 913 ng/mL; Tmax ([8]; iv, 5 mg/kg): 9.6 min; half-life ([8]; iv, 5 mg/kg): 22.2 min; bioavailability ([8]; oral 10 mg/kg vs i.v. 5 mg/kg): 1.12%; AUC(0-t) ([8]; oral, 10 mg/kg): 9.3 ng·h/mL; Cmax ([8]; oral, 10 mg/kg): 18.6 ng/mL; Tmax ([8]; oral, 10 mg/kg): 60 min; half-life ([8]; oral, 10 mg/kg): 666 min
11 | Cc1ccc(CNC2CCN(CCn3c(=O)cnc4ccc(C#N)cc43)CC2)cc1F [VT-03-00103] | 0.5 (≈ 1.19 µM) | 0.25 (≈ 0.596 µM) | 0.03 (≈ 0.0715 µM) | 32 (≈ 76.3 µM) | 1 (≈ 2.38 µM) | 55.8 | 87.5 | 
